Laboratory results: US10766869B2, “Triazoles for the treatment of demyelinating dieases” (Vertex Pharmaceuticals Incorporated, priority 2015, dated 2020)
Where two headings read alike, the source gives them in different places.

Test system: primary rat mixed cortical cells
Test: In vitro myelination assay (MBP positive myelin strands, fold myelin pixels above background)
Type: cell-based
Settings: Rattus norvegicus; for fold induction at 1 µM: 1.0 μM compound; for fold induction at 10 µM: 10.0 μM compound
How it was run: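 Mixed cortical culture, P1 rat, 87,500-95,000 cells/well; compound present from seeding, refreshed days 6 and 10; 14 d, 37 °C, 5% CO2. Day 14: PFA fix, anti-MBP + Hoechst. Read-out: fold MBP myelin pixels over untreated, tested at 1.0 and 10.0 μM.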

[1] = relative to baseline of no added compound, read-out: Fold myelin pixels above background
[2] = read-out: Fold myelin pixels above background relative to baseline of no added compound
[3] = relative to baseline of no added compound, read-out: Fold myelin pixels above background, 1.0 μM
[4] = relative to baseline of no added compound, read-out: Fold myelin pixels above background, 10.0 μM

Row | Compound | fold induction at 1 µM [2] | fold induction at 10 µM [2] | fold induction at 1 µM [3] | fold induction at 10 µM [4] | also measured
1 | Cc1cc(Nc2ncn(-c3ccccc3)n2)cc(N2CCN(CC(C)(C)O)CC2)c1 [Compound 461, 2-methyl-1-[4-[3-methyl-5-[(1-phenyl-1,2,4-triazol-3-yl)amino]phenyl]piperazin-1-yl]propan-2-ol] | – | – | – | – | fold induction at 1 µM [1]: 1000 to 10000; fold induction at 10 µM [1]: ≤ 1
2 | Cc1cc(Nc2ncn(-c3cc(F)cc(F)c3)n2)c(F)c(NC2CCOCC2)c1 [Compound 810, N3-[1-(3,5-difluorophenyl)-1,2,4-triazol-3-yl]-2-fluoro-5-methyl-N1-tetrahydropyran-4-yl-benzene-1,3-diamine] | 1 to 10 | 1 to 10 | – | – | –
3 | Cc1cc(Nc2ncn(-c3ccnc(F)c3)n2)cc(N2CCN(C3COC3)CC2)c1 [Compound 40, 1-(2-fluoro-4-pyridyl)-N-[3-methyl-5-[4-(oxetan-3-yl)piperazin-1-yl]phenyl]-1,2,4-triazol-3-amine] | – | – | 1000 to 10000 | 10 to 100 | –
4 | Cc1cc(Nc2ncn(-c3cc(F)cc(F)c3)n2)cc(N2CCN(CCO)C(C)C2)c1 (stereo not drawn) [Compound 902, 2-[4-[3-[[1-(3,5-difluorophenyl)-1,2,4-triazol-3-yl]amino]-5-methyl-phenyl]-2-methyl-piperazin-1-yl]ethanol] | 1 to 10 | ≤ 1 | – | – | –
5 | Cc1cc(Nc2ncn(-c3ccccc3)n2)cc(C2CN(C3COC3)C2)c1 [Compound 65, N-[3-methyl-5-[1-(oxetan-3-yl)azetidin-3-yl]phenyl]-1-phenyl-1,2,4-triazol-3-amine] | – | – | 1000 to 10000 | 1 to 10 | –
6 | Cc1ccc(-n2cnc(Nc3cc(C)cc(N4CCCC4)c3)n2)cc1 [Compound 372, N-(3-methyl-5-pyrrolidin-1-yl-phenyl)-1-(p-tolyl)-1,2,4-triazol-3-amine] | – | – | 1 to 10 | 10 to 100 | –
7 | Cc1cc(Nc2ncn(-c3cc(F)cc(F)c3)n2)cc(N2CCn3ccnc3C2)c1 [Compound 19, 1-(3,5-difluorophenyl)-N-[3-(6,8-dihydro-5H-imidazo[1,2-a]pyrazin-7-yl)-5-methyl-phenyl]-1,2,4-triazol-3-amine] | – | – | 10 to 100 | 1 to 10 | –
8 | Cc1cc(Nc2ncn(-c3cc(F)cc(F)c3)n2)cc(N2CCN(C)C(CCO)C2)c1 (stereo not drawn) [Compound 1026, 2-[4-[3-[[1-(3,5-difluorophenyl)-1,2,4-triazol-3-yl]amino]-5-methyl-phenyl]-1-methyl-piperazin-2-yl]ethanol] | 1 to 10 | 1 to 10 | – | – | –
9 | Cc1cc(Nc2ncn(-c3cc(F)cc(F)c3)n2)cc(NC2CCN(CCN3CCOCC3)C2)c1 (stereo not drawn) [Compound 880, N3-[1-(3,5-difluorophenyl)-1,2,4-triazol-3-yl]-5-methyl-N1-[1-(2-morpholinoethyl)pyrrolidin-3-yl]benzene-1,3-diamine] | 1 to 10 | ≤ 1 | – | – | –
10 | Cc1cc(Nc2ncn(-c3ccc(F)c(F)c3)n2)cc(OCC2CC(F)(F)C2)c1 [Compound 640, N-[3-[(3,3-difluorocyclobutyl)methoxy]-5-methyl-phenyl]-1-(3,4-difluorophenyl)-1,2,4-triazol-3-amine] | – | – | – | – | fold induction at 1 µM [1]: 10 to 100; fold induction at 10 µM [1]: 1 to 10
11 | FC(F)(F)c1cc(Nc2ncn(-c3ccccc3)n2)cc(N2CCOCC2)c1 [Compound 366, N-[3-morpholino-5-(trifluoromethyl)phenyl]-1-phenyl-1,2,4-triazol-3-amine] | – | – | 1000 to 10000 | 1000 to 10000 | –
12 | Cc1cc(Nc2ncn(-c3cncc(Cl)c3)n2)cc(N2CCN(C3COC3)CC2)c1 [Compound 217, 1-(5-chloro-3-pyridyl)-N-[3-methyl-5-[4-(oxetan-3-yl)piperazin-1-yl]phenyl]-1,2,4-triazol-3-amine] | – | – | 10 to 100 | 10 to 100 | –
13 | Fc1cc(F)cc(-n2cnc(Nc3cc(C(F)(F)F)cc(N4CCN(C5COC5)CC4)n3)n2)c1 [Compound 540, N-[1-(3,5-difluorophenyl)-1,2,4-triazol-3-yl]-6-[4-(oxetan-3-yl)piperazin-1-yl]-4-(trifluoromethyl)pyridin-2-amine] | – | – | – | – | fold induction at 1 µM [1]: 10 to 100; fold induction at 10 µM [1]: 100 to 1000
14 | COCCCN1CCC(Nc2cc(C)cc(Nc3ncn(-c4ccccc4)n3)c2)CC1 [Compound 182, N1-[1-(3-methoxypropyl)-4-piperidyl]-5-methyl-N3-(1-phenyl-1,2,4-triazol-3-yl)benzene-1,3-diamine] | – | – | 1000 to 10000 | 1 to 10 | –
15 | Cc1cc(NC2(C)COC2)cc(Nc2ncn(-c3cc(F)cc(F)c3)n2)c1F [Compound 1016, N3-[1-(3,5-difluorophenyl)-1,2,4-triazol-3-yl]-4-fluoro-5-methyl-N1-(3-methyloxetan-3-yl)benzene-1,3-diamine] | 10 to 100 | 1 to 10 | – | – | –
16 | Cc1cc(NCC2CCCC2N2CCOCC2)cc(Nc2ncn(-c3cc(F)cc(F)c3)n2)c1 (stereo not drawn) [Compound 895, N1-[1-(3,5-difluorophenyl)-1,2,4-triazol-3-yl]-5-methyl-N3-[(2-morpholinocyclopentyl)methyl]benzene-1,3-diamine] | 10 to 100 | 1 to 10 | – | – | –
17 | Cc1cc(Nc2ncn(-c3cc(F)cc(F)c3)n2)nc(N2CC(C3COC3)C2)c1 [Compound 563, N-[1-(3,5-difluorophenyl)-1,2,4-triazol-3-yl]-4-methyl-6-[3-(oxetan-3-yl)azetidin-1-yl]pyridin-2-amine] | – | – | – | – | fold induction at 1 µM [1]: ≤ 1; fold induction at 10 µM [1]: 1 to 10
18 | Cc1cc(Nc2ncn(-c3ccccc3)n2)cc(N2CCCC2)c1 [Compound 110, N-(3-methyl-5-pyrrolidin-1-yl-phenyl)-1-phenyl-1,2,4-triazol-3-amine] | – | – | 100 to 1000 | 1 to 10 | –
19 | FC(F)c1cc(Nc2ncn(-c3ccccc3)n2)cc(N2CCN(C3COC3)CC2)c1 [Compound 26, N-[3-(difluoromethyl)-5-[4-(oxetan-3-yl)piperazin-1-yl]phenyl]-1-phenyl-1,2,4-triazol-3-amine] | – | – | 100 to 1000 | ≤ 1 | –
20 | C1=C(c2cc(Nc3ncn(-c4ccccc4)n3)cc(C3=CCOCC3)c2)CCOC1 [Compound 315, N-[3,5-bis(3,6-dihydro-2H-pyran-4-yl)phenyl]-1-phenyl-1,2,4-triazol-3-amine] | – | – | 100 to 1000 | 100 to 1000 | –
21 | Cc1cc(Nc2ncn(-c3ccccn3)n2)cc(N2CCN(C3COC3)CC2)c1 [Compound 104, N-[3-methyl-5-[4-(oxetan-3-yl)piperazin-1-yl]phenyl]-1-(2-pyridyl)-1,2,4-triazol-3-amine] | – | – | 10 to 100 | 100 to 1000 | –
22 | COCC1CCN(c2cc(C)cc(Nc3ncn(-c4ccncn4)n3)c2)CC1 [Compound 464, N-[3-[4-(methoxymethyl)-1-piperidyl]-5-methyl-phenyl]-1-pyrimidin-4-yl-1,2,4-triazol-3-amine] | – | – | – | – | fold induction at 1 µM [1]: 10 to 100; fold induction at 10 µM [1]: 100 to 1000
23 | Cc1cc(Nc2ncn(-c3cc(F)cc(F)c3)n2)cc(N2CCC(F)CC2)n1 [Compound 457, N-[1-(3,5-difluorophenyl)-1,2,4-triazol-3-yl]-2-(4-fluoro-1-piperidyl)-6-methyl-pyridin-4-amine] | – | – | – | – | fold induction at 1 µM [1]: 1000 to 10000; fold induction at 10 µM [1]: 1000 to 10000
24 | Cc1cc(Nc2ncn(-c3cc(F)cc(F)c3)n2)cc(N2CCCC(N3CCOCC3)C2)c1 (stereo not drawn) [Compound 911, 1-(3,5-difluorophenyl)-N-[3-methyl-5-(3-morpholino-1-piperidyl)phenyl]-1,2,4-triazol-3-amine] | 1 to 10 | 1 to 10 | – | – | –
25 | COCc1cc(-n2cnc(Nc3cc(C)cc(N4CCN(C5COC5)CC4)c3)n2)ncn1 [Compound 364, 1-[6-(methoxymethyl)pyrimidin-4-yl]-N-[3-methyl-5-[4-(oxetan-3-yl)piperazin-1-yl]phenyl]-1,2,4-triazol-3-amine] | – | – | 1 to 10 | 10 to 100 | –
26 | [2H]C1([2H])OC([2H])([2H])C([2H])([2H])N(c2cc(C)cc(Nc3ncn(-c4ccc(F)c(F)c4)n3)c2)C1([2H])[2H] [Compound 1066, 1-(3,4-difluorophenyl)-N-[3-methyl-5-(2,2,3,3,5,5,6,6-octadeuteriomorpholin-4-yl)phenyl]-1,2,4-triazol-3-amine] | 10 to 100 | ≤ 1 | – | – | –
27 | CCc1cc(Nc2ncn(-c3cc(F)cc(F)c3)n2)cc(N2CCN(C3(C)COC3)CC2)c1 [Compound 264, 1-(3,5-difluorophenyl)-N-[3-ethyl-5-[4-(3-methyloxetan-3-yl)piperazin-1-yl]phenyl]-1,2,4-triazol-3-amine] | – | – | 10 to 100 | 10 to 100 | –
28 | Cc1cc(Nc2ncn(-c3ccc(F)c(F)c3)n2)cc(OCC2(C)COC2)c1 [Compound 615, 1-(3,4-difluorophenyl)-N-[3-methyl-5-[(3-methyloxetan-3-yl)methoxy]phenyl]-1,2,4-triazol-3-amine] | – | – | – | – | fold induction at 1 µM [1]: 10 to 100; fold induction at 10 µM [1]: 10 to 100
29 | Cc1cc(Nc2ncn(-c3cc(F)cc(F)c3)n2)cc(NC(C)CN2CCOCC2)c1 (stereo not drawn) [Compound 931, N3-[1-(3,5-difluorophenyl)-1,2,4-triazol-3-yl]-5-methyl-N1-(1-methyl-2-morpholino-ethyl)benzene-1,3-diamine] | 10 to 100 | ≤ 1 | – | – | –
30 | [2H]c1nc(Nc2cc(C)cc(N3CCN(C4COC4)CC3)c2)nn1-c1cc(F)cc(F)c1 [Compound 1080, 5-deuterio-1-(3,5-difluorophenyl)-N-[3-methyl-5-[4-(oxetan-3-yl)piperazin-1-yl]phenyl]-1,2,4-triazol-3-amine] | 10 to 100 | 10 to 100 | – | – | –
